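Interpolation was linear, between the two tested concentrations surrounding the appropriate level; five concentrations were tested over 48 hours in 96-well plates. GI50 is the concentration that inhibits growth by half.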 Calls of active or inactive are those of the source. No stated cut-off is given here; in the data, active = GI50 up to about 1.1 µM and inactive = higher.

Holding throughout (assay): growth of human tumour cells (NCI), 48 h
The subject of assay [1] is A498.
Assay [2] deals with CCRF-CEM.
Assay [3] relates to EKVX.
The test system of assay [4] is HCT-15.
The test system of assay [5] is HL-60.
Assay [6] deals with HOP-62.
Assay [7] relates to LOX IMVI.
For assay [8], the system named is MCF7.
For assay [9], the system named is MDA-MB-231.
The subject of assay [10] is MDA-N.
In assay [11] the test system is MOLT-4.
The test system of assay [12] is NCI-H226.
Assay [13] has as its system NCI-H522.
In assay [14] the test system is OVCAR-3.
Assay [15] relates to OVCAR-5.
For assay [16], the system named is PC-3.
Assay [17] relates to SF-268.
Assay [18] deals with SF-539.
The subject of assay [19] is TK-10.
The test system of assay [20] is SK-MEL-28.

Regarding `Nc1c(C(=O)O)nnc2cc(Cl)c(Cl)cc12`, the GI50 is 91 µM (inactive) in [1]; > 100 µM (inactive) in [2]; > 100 µM (inactive) in assay [3]; over 100 µM in assay [4]; 57 µM (inactive) in [5]; > 100 µM (inactive) in assay [6]. Besides, the GI50 is 82 µM (inactive) in assay [7]; > 100 µM (inactive) in assay [8]; > 100 µM (inactive) in [9]; > 100 µM (inactive) in assay [10]; > 100 µM (inactive) in assay [11]; 47.8 µM (inactive) in assay [12]. Moreover, the GI50 in [13], in assay [14], in assay [15], in assay [16], in assay [17] and in assay [18] was > 100 µM (inactive) throughout. Also, the GI50 in [19] was > 100 µM (inactive).

Regarding `COc1ccc(OC)c2sc(N3C(=O)/C(=C/c4ccc(SC)cc4)N=C3c3ccccc3)nc12`, the GI50 is > 100 µM (inactive) in assay [1]; 8.17 µM (inactive) in assay [2]; 32.1 µM (inactive) in assay [3]; 43.1 µM in [4]; 25.5 µM (inactive) in assay [5]; 16.4 µM (inactive) in [6]. For the same compound, the GI50 in assay [7] was 25.6 µM (inactive); in assay [8], 20.3 µM (inactive); in [9], > 100 µM (inactive); in [10], 20.3 µM (inactive); in assay [11], 22.3 µM (inactive); in assay [14] it was 20.4 µM (inactive). The GI50 in assay [15] was 47.3 µM (inactive); in assay [16], 21.7 µM (inactive); in assay [17], 14.1 µM (inactive); in assay [18], 23.8 µM (inactive); in [20] it was > 100 µM (inactive); in [19], > 100 µM (inactive).

Take `Cn1cc2c3ccccc3nc-2c2ccccc21` [ISOCRYPTOLEPINE]: the GI50 in [1] is 1.74 µM (inactive); in assay [2], 1.45 µM (inactive); in assay [4], 1.97 µM; in assay [5], 2.04 µM (inactive); in [6] it was 1.59 µM (inactive); in assay [7] it was 1.77 µM (inactive). For the same compound, the GI50 in [8] was 2.67 µM (inactive); in assay [9] it was 2.35 µM (inactive); in [10] it was 2.04 µM (inactive); in assay [11], 0.421 µM (active); in assay [13], 1.41 µM (inactive); in assay [14] it was 2.36 µM (inactive). The GI50 is 2.14 µM (inactive) in [15]; 2.52 µM (inactive) in assay [16]; 2.33 µM (inactive) in assay [17]; 1.72 µM (inactive) in assay [18]; 2.38 µM (inactive) in assay [20]; 3.93 µM (inactive) in assay [19].

Regarding `CC(/C=C/C=C\C=C\C=C(/C)C(=O)NC(C)CO)=C\C(C)C(O)/C(C)=C/C(C)CCc1ccccc1` (stereo unspecified), the GI50 in assay [1] is 12.6 µM (inactive); in [2], 8.85 µM (inactive); in [3], 4.73 µM (inactive); in assay [4], 12.8 µM; in [5], 5.02 µM (inactive); in assay [6], 12.4 µM (inactive). The GI50 was 1.84 µM (inactive) in assay [8]; 14.6 µM (inactive) in assay [9]; 12.2 µM (inactive) in assay [10]; 7.46 µM (inactive) in assay [11]; 8.65 µM (inactive) in [12]; 2.77 µM (inactive) in [13]. Further, the GI50 in assay [14] is 1.4 µM (inactive); in [15], 10.9 µM (inactive); in [16], 7.94 µM (inactive); in [17], 13.5 µM (inactive); in assay [18], 14.1 µM (inactive); in assay [20], 12.9 µM (inactive). Also, the GI50 in assay [19] was 14 µM (inactive).

For the compound `C=C1C[C@@H](O)[C@@H](Br)C(C)(C)[C@@]12C=CC(=O)CC2`, the GI50 is > 100 µM (inactive) in [1]; > 100 µM (inactive) in assay [2]; over 100 µM in assay [4]; > 100 µM (inactive) in assay [5]; > 100 µM (inactive) in [6]; > 100 µM (inactive) in [7]. For the same compound, the GI50 in assay [8], in assay [9], in assay [10], in assay [11], in [13] and in [14] was > 100 µM (inactive) in each case. Further, the GI50 in assay [15] was 3.18 µM (inactive); in [16], 1.5 µM (inactive); in assay [17], > 100 µM (inactive); in [18] it was > 100 µM (inactive); in assay [20], > 100 µM (inactive); in [19], 12.6 µM (inactive).

As to `CCOC(=O)/C(C#N)=C1\c2c([nH]c(=S)[nH]c2=O)Oc2ccc3ccccc3c21`, the GI50 in assay [1] was 36.6 µM (inactive); in assay [2] it was 1.55 µM (inactive); in [3], 22.6 µM (inactive); in assay [4], 71.6 µM; in assay [5], 2.64 µM (inactive); in assay [6], 42.2 µM (inactive). Further, the GI50 in assay [7] is > 100 µM (inactive); in [8], 30.1 µM (inactive); in assay [9], 24.8 µM (inactive); in assay [10], 51.2 µM (inactive); in [11], 11.2 µM (inactive); in [12], 18 µM (inactive). The GI50 in assay [13] was 19 µM (inactive); in assay [14], 23.7 µM (inactive); in [15], > 100 µM (inactive); in [16], 34 µM (inactive); in [17], 24.3 µM (inactive); in [20], 1.46 µM (inactive). For the same compound, in assay [19], the GI50 is 39.9 µM (inactive).

`CC(C)(C)OC(=O)N1CCc2[nH][nH]c(=O)c2C1`: the GI50 in [1] was > 100 µM (inactive); in assay [2] it was > 100 µM (inactive); in [3] it was > 100 µM (inactive); in assay [4], over 100 µM; in assay [5], > 100 µM (inactive); in assay [6], > 100 µM (inactive). For the same compound, the GI50 in assay [8], in assay [9], in assay [10], in assay [11], in [12] and in [13] was > 100 µM (inactive) in each case. Moreover, the GI50 in assay [14], in assay [16], in assay [17], in assay [18], in assay [20] and in assay [19] was > 100 µM (inactive) throughout.

As for `CCOC(=O)c1cc2c([nH]1)c(OC(C)=O)cc1c2ccn1Cc1ccccc1`, the GI50 in assay [1] is > 100 µM (inactive); in assay [2], > 100 µM (inactive); in [3], 99.5 µM (inactive); in assay [4] it was over 100 µM; in assay [5], > 100 µM (inactive); in [6] it was > 100 µM (inactive). In addition, the GI50 in [7], in assay [8], in [9], in assay [10], in [11] and in [12] was > 100 µM (inactive) throughout. The GI50 in assay [14], in assay [15], in assay [16], in assay [17], in [18] and in assay [20] was > 100 µM (inactive) each time.

Turning to `O=C(O)CCC(C(=O)O)N1C(=O)c2ccccc2C1=O` (stereo unspecified), the GI50 is > 100 µM (inactive) in assay [1]; > 100 µM (inactive) in [2]; > 100 µM (inactive) in [3]; over 100 µM in [4]; > 100 µM (inactive) in [5]; > 100 µM (inactive) in assay [6]. The GI50 in assay [7], in assay [8], in assay [9], in [10], in assay [12] and in assay [13] was > 100 µM (inactive) in each case. Moreover, the GI50 in assay [14], in [15], in assay [16], in assay [17], in assay [20] and in assay [19] was > 100 µM (inactive) each time.

`CCCC[C@H]1CCN2C[C@@H](O)[C@@H](O)[C@H]2[C@@H]1O`: the GI50 was > 100 µM (inactive) in assay [1]; > 100 µM (inactive) in assay [2]; > 100 µM (inactive) in assay [3]; over 100 µM in [4]; > 100 µM (inactive) in [5]; > 100 µM (inactive) in assay [7]. The GI50 in [8], in [9], in assay [10], in assay [11], in assay [12] and in assay [13] was > 100 µM (inactive) throughout. Further, the GI50 in [14], in assay [15], in assay [16], in [17], in [18] and in [20] was > 100 µM (inactive) throughout. For the same compound, the GI50 in [19] was > 100 µM (inactive).

`N=C/N=C/C(=S)O[C@@H]1C(=O)N2CCC[C@@]23CCCC[C@@H]13`: the GI50 in assay [1] was > 12.5 µM (inactive); in assay [2], > 12.5 µM (inactive); in assay [3], > 12.5 µM (inactive); in [4], over 12.5 µM; in [5], > 12.5 µM (inactive); in assay [6] it was > 12.5 µM (inactive). In addition, the GI50 in assay [7], in assay [8], in assay [9], in assay [10], in [12] and in assay [13] was > 12.5 µM (inactive) in each case. For the same compound, the GI50 in assay [15], in assay [16], in [17], in assay [20] and in assay [19] was > 12.5 µM (inactive) throughout.
